# Results published in patent US9523691B2, “Use of the olfactomedin-4 protein (OLFM4) in colorectal cancer diagnosis” (INSTITUT DE CANCEROLOGIE DE L'OUEST, priority 2011, dated 2016).
# Test system: wild type HCT116 cells
# Assay: Clonogenic cell survival assay, OLFM4 added to the medium with genotoxic treatment
# Assay type: cell-based, human
# Settings: 10 days
# Method: The influence of OLFM4 following genotoxic treatments in HCT116 OLFM4 inducible cells was evaluated by clonogenic assay. Cells were incubated with 50 ng/ml of doxycyclin, and then 24 hr later treated with oxaliplatin or sn38 at the indicated concentration for 10 days. The colonies were stained with crystal violet and counted by QuantityOne software (Biorad). B. OLFM4 overexpressed in COS7 cells, was added at approximately 3 ng/ml to oxaliplatin and sn38 treatment in the wild type HCT116 cells for 10 days. The colonies were stained and count as above. The histograms shown are representative of three individual experiments.
# The human colon adenocarcinoma cell line HCT116 (American Type Culture Collection, ATCC) were maintained in antibiotic-free RPMI 1640 medium (Lonza). Cultures were supplemented with 10% fetal bovine serum. […]
# HCT116 stable OLFM4 cells were seeded at 300 cells into 6 well cell culture plates with RPMI 1640 medium supplement with 3% fetal bovine serum and incubated at 37° C. in a 5% CO2 atmosphere. […] The number of colonies exceeding 50 cells was visualized with a Bio-Rad Chemi Doc XRS Imaging device and counted using Quantity One imaging software (Bio-Rad). The survival fraction was determined as the ratio of the number of colonies observed without doxycycline to the number of cells with doxycycline, adjusted to the plating efficiency.
substance,measurement,setting,value
"OLFM4: Secreted N-glycosylated protein of 510 residues, overexpressed in COS7 cells and added to culture medium","resistance to oxaliplatin (colony survival, clonogenic assay)",OLFM4 overexpressed in COS7 cells added at approximately 3 ng/ml to oxaliplatin treatment,promotes resistance
same,"resistance to sn38 (colony survival, clonogenic assay)",OLFM4 overexpressed in COS7 cells added at approximately 3 ng/ml to sn38 treatment,promotes resistance
